In patent US20110293745A1, “AURORA KINASE INHIBITORS” (SUNESIS PHARMACEUTICALS, INC., priority 2008, published 2011):

Key:
Axl = target: T1, Axl (Homo sapiens, UniProt P30530); assay: Radiometric kinase assay (Upstate panel); assay type: biochemical
T1 construct: purchased Upstate Biotechnology, Dundee, UK

MiaPaca2 = assay: Cell cycle analysis (cells with ≧4N DNA content); assay type: cell-based; conditions: Homo sapiens, MIA PaCa-2, MiaPaca2, 16 hours
Excerpt: Cells were fixed, stained, and analyzed.

DDR2 = target: T2, DDR2 (Homo sapiens, UniProt Q16832); assay: Radiometric kinase assay (Upstate panel); assay type: biochemical
T2 construct: purchased Upstate Biotechnology, Dundee, UK

[1] = tested on: histone H3 phosphorylation in epidermis; assay: pHH3 immunohistochemistry in mouse skin punches; assay type: in vivo
Experimental: For each study, animals were randomized by tumor volume and distributed into groups of ten animals each. […] Inhibition of histone H3 (HH3) phosphorylation was evaluated in HCT 116 xenograft tumors, mouse femur bone marrow, and mouse skin punch biopsy sections by immunohistochemistry (IHC). […] The tumors were collected 6 hrs post-dose on day 4, 11, 18 and on day 25 (one week after completion of dosing phase of the experiment). Phosphorylated histone H3 (pHH3) was detected by immunohistochemistry staining of tissue sections with the antibody # 9701 (Cell Signaling Technology, Inc.), which recognizes phosphorylation of Ser10 residue in histone H3 protein. […] Three mice in each group were sacrificed on day 4 and day 18, 6 hours post-dose. Skin punches (8 mm) were fixed in formalin, trimmed, and sections stained to identify cells positive for histone H3 phosphorylation.

[2] = tested on: Calu 6 lung carcinoma xenograft; assay: In vivo efficacy, mouse xenograft; conditions: CALU6 (NSCLC)
Experimental: Percent TGI is then calculated with the following equation: […]
Time To Endpoint (TTE) was calculated for each individual animal to reach the predetermined study end point where the tumor volume becomes 1200 mm^3 or 10% of body weight or a greater than 20% body weight loss for two sequential measurements. The TTE is calculated and the median value is recorded for the group. Tumor Growth Delay (TGD) is then calculated with the following equation: […]
Calu 6 lung carcinoma cells [200 μL of a 5×10^7 cells/ml suspension (1:1 DPBS with cells:Matrigel)] were implanted subcutaneously in the right hind flank of mice. After 11 days, when tumors reached an average volume of approximately 150 mm^3, animals were weighed, randomized by tumor volume (l×w×h×0.52), and assigned to the various study groups before initial dosing.

pHH3 in HT-29 = assay: cells; conditions: Homo sapiens, HT-29, 1 h, read-out: pHH3 IC50
HT-29 = assay: cells; conditions: Homo sapiens, HT-29, 96 h, read-out: BrdU IC50
Experimental: Cellular proliferation was assessed using the Cell Proliferation ELISA, bromodeoxyuridine (BrdU) kit (Roche) including reagents, according to the kit protocol.

[3] = tested on: MV-4-11 (human acute myeloid leukemia) xenograft; assay: In vivo efficacy, mouse xenograft; conditions: 150 mg/kg IP twice-weekly for 3 weeks
Experimental: The human cell line MV-4-11 (human acute myeloid leukemia) was established as subcutaneous xenografts in nu/nu female mice. Animals were randomized by tumor volume and distributed into groups of ten animals each. Treatments were initiated when tumors averaged about 200 mm^3 in volume. End points for each group were determined based on body weight nadir, adverse clinical observations, or tumor volumes exceeding maximum threshold of 2000 mm^3.
[…]. Responses were assessed by tumor growth inhibition (TGI) and tumor growth delay (TGD). TGI and TGD in the treatment group were evaluated against the vehicle control group.

Aurora C = Aurora C (Homo sapiens, UniProt Q9UQB9); assay: HTRF-based biochemical IC50 assay
Excerpt: […]. A biotin-conjugated histone H3 peptide (Upstate Biotechnology) was used as a substrate.

[4] = Pharmacokinetics, single bolus intravenous injection; assay type: in vivo, Sprague-Dawley rats; conditions: Sprague-Dawley, rat, plasma, 5 mg/kg
Excerpt: Pharmacokinetic parameters were estimated using noncompartmental analysis within WinNonlin v. 4.1. Quantification of Compound 2 was done by HPLC-MS/MS after extraction from plasma with acetonitrile. […] For rising dose experiments measuring exposure for each species, sets containing several animals were singly dosed at a given dose. Results from single-dose experiments are shown in FIG. 10A, Table 43, and in FIG. 10B and Table 44, respectively. […] C0 is initial concentration extrapolated to time zero. AUCINF is area under the plasma-concentration time curve from time zero extrapolated to the infinite time. CL is clearance; Vss is steady state volume of distribution. T1/2 is half-life.

[5] = Bioavailability profile, IV, IP and PO; assay type: in vivo, mice; conditions: for F: mice, 50 mg/kg Compound 1, bioavailability
Excerpt: Pharmacokinetic parameters were estimated using noncompartmental analysis within WinNonlin v. 4.1. […] For rising dose experiments measuring exposure for each species, sets containing several animals were singly dosed at a given dose. […] Abbreviations are as in Table 18; F is fraction of dose absorbed.

[6] = Mass balance, elimination, autoradiography and metabolites with 14C-label; assay type: in vivo; conditions: IV bolus 50 mg/kg, male rats, whole-body autoradiography
[7] = Rising dose pharmacokinetics (exposure, gender); assay type: in vivo, rats; conditions: for clearance / half-life / Vd: Sprague-Dawley, plasma, iv
Excerpt: Pharmacokinetic parameters were estimated using noncompartmental analysis within WinNonlin v. 4.1. […] For rising dose experiments measuring exposure for each species, sets containing several animals were singly dosed at a given dose.

[8] = CD-1, mouse, plasma, ip, 50 mg/kg
[9] = CD-1, mouse, plasma, iv, 50 mg/kg
[10] = CD-1, mouse, plasma, po, 50 mg/kg

Aurora C, sequence (Q9UQB9 whole entry): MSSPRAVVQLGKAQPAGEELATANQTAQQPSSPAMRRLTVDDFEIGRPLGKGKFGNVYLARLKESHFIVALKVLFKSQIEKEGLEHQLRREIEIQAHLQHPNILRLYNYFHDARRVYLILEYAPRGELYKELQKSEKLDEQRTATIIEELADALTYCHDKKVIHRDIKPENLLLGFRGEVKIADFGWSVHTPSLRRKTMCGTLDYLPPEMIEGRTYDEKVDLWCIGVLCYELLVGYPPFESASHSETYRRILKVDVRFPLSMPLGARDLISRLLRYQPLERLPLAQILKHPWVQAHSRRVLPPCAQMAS
T1 sequence (P30530 26-894): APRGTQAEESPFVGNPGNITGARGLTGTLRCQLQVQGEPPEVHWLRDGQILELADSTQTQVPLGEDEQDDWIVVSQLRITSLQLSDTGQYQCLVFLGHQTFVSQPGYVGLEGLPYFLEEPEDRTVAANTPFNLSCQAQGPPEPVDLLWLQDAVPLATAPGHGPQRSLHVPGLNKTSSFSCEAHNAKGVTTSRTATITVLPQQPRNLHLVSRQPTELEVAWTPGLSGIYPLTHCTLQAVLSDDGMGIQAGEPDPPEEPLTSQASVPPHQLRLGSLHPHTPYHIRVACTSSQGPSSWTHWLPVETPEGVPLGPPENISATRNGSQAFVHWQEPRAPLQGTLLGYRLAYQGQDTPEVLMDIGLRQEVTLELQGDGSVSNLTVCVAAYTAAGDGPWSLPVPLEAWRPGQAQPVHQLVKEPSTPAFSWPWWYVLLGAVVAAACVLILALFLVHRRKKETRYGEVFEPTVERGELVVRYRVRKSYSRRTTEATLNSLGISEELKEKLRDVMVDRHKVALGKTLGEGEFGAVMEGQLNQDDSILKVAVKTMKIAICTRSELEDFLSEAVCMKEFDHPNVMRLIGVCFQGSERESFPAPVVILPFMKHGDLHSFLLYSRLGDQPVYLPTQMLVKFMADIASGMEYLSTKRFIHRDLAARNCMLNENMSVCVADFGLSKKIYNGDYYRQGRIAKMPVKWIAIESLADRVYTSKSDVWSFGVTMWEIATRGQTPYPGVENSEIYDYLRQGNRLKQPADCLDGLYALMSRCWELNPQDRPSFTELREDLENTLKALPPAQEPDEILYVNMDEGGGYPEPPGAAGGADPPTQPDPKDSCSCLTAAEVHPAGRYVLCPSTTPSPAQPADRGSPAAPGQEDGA
T2 sequence (Q16832 22-855): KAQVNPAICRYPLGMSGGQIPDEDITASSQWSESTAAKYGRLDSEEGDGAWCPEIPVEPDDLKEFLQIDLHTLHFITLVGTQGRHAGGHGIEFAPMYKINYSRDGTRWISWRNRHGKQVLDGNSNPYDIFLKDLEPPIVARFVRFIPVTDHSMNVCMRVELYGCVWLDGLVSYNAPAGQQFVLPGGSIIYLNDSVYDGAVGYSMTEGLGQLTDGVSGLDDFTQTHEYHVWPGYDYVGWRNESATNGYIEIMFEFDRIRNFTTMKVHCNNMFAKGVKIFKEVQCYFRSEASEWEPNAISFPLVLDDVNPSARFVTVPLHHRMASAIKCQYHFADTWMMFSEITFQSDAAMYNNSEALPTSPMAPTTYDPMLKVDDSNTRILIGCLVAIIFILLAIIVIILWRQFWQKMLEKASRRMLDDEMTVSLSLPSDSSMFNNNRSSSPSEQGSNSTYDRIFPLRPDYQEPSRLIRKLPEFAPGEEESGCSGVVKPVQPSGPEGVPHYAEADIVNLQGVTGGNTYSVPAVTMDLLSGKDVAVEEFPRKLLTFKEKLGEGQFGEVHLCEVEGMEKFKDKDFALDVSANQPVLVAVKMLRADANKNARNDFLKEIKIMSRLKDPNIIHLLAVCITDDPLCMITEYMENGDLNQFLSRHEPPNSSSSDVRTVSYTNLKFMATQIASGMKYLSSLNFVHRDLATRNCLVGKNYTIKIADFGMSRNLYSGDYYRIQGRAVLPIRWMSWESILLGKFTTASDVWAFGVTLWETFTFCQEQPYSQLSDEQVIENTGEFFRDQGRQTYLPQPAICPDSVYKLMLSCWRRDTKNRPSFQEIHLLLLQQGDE

Work on `CS(=O)(=O)O.O=C(Nc1cccc(Cl)c1)Nc1ncc(CCNc2ncnc3ccsc23)s1` [Compound 1, 1-(3-chlorophenyl)-3-{5-[2-(thieno[3,2-d]pyrimidin-4-ylamino)ethyl]thiazo}-urea] yielded an IC50 (Axl) of 0.084 µM, an EC50 (MiaPaca2) of 9 nM and an IC50 (DDR2) of 0.082 µM. The “reduction of number of phospho-histone H3 positively stained cells in epidermis versus vehicle” value ([1]; 150 mg/kg biweekly for 3 weeks, day 4 and day 18, 6 hours post-dose) was roughly 50%, the “number of positively stained cells in epidermis versus vehicle” value ([1]; day 25) was “still decreased” and the “% TGI” value ([2]; 42.5 mg/kg biw × 3) was 23.5%. The “% TGI” value ([2]; 85 mg/kg biw × 3) was 28.7%, the “% TGI” value ([2]; 170 mg/kg biw × 3) was 91.4% and the IC50 (pHH3 in HT-29) was 60 nM. For the same compound, the IC50 (HT-29) was 24.4 nM, the tumor growth delay [3] was 10 days and the “Percent tumor growth inhibition (% TGI)” value ([3]; p-value 0.0008) was 75.56%. For the same compound, the “IC50 values, Aurora kinase C (summary in words)” value (Aurora C) was “low nanomolar range” and the IC50 (Aurora C; HTRF, N 1) was 0.0034 µM.

Compound `O=C(Nc1cccc(Cl)c1)Nc1ncc(CCNc2ncnc3ccsc23)s1` [Compound 2, 1-(3-chlorophenyl)-3-{5-[2-(thieno[3,2-d]pyrimidin-4-ylamino)ethyl]thiazol-2-yl}-urea] has an AUC(0-inf) [4] of 2100 ng·h/mL, a C0 [4] of 3600 ng/mL and a clearance [4] of 41.2 mL/min/kg. For the same compound, the half-life [4] was 0.8 h, the Vd ([4]; read-out: Vss) was 1.8 L/kg and the AUC(0-inf) [5, 8] was 46200 ng·h/mL. The half-life [5, 8] was 0.7 h, the AUC(0-inf) [5, 9] was 43600 ng·h/mL and the C0 [5, 9] was 42000 ng/mL. The clearance [5, 9] was 19.1 mL/min/kg, the half-life [5, 9] was 0.8 h and the Vd ([5]; CD-1, mouse, plasma, iv, 50 mg/kg, read-out: Vss) was 1.2 L/kg. The AUC(0-inf) [5, 10] was 28300 ng·h/mL, the half-life [5, 10] was 3.3 h and the F ([5]; IP) was 106%. For the same compound, the F ([5]; PO) was 65%, the “time of maximum tissue concentrations of radioactivity” value [6] was 1 h and the clearance ([7]; 60 mg/m2, rat, 60 mg/m^2) was 17.2 mL/min/kg. For the same compound, the half-life ([7]; 60 mg/m2, rat, 60 mg/m^2) was 1.4 h, the Vd ([7]; 60 mg/m2, rat, 60 mg/m^2, read-out: Vss) was 1.3 L/kg and the clearance ([7]; 300 mg/m2, rat, 300 mg/m^2) was 4 mL/min/kg. It also gave a half-life ([7]; 300 mg/m2, rat, 300 mg/m^2) of 1.7 h, a Vd ([7]; 300 mg/m2, rat, 300 mg/m^2, read-out: Vss) of 1.1 L/kg and a clearance ([7]; 600 mg/m2, rat, 600 mg/m^2) of 2 mL/min/kg. The half-life ([7]; 600 mg/m2, rat, 600 mg/m^2) was 5.9 h, the Vd ([7]; 600 mg/m2, rat, 600 mg/m^2, read-out: Vss) was 1.1 L/kg and the “dose dependence of systemic exposure (AUC)” value ([7]; most pronounced in rats and mice, lesser extent in dogs) was “non-linear systemic exposure”.
